From publication PMC4138601 (Analytical and bioanalytical chemistry, 2012)

Key:
[1] = biological target: T1, Sphingomyelinase from human placenta (human L-ASM) (Homo sapiens, UniProt P17405); experiment: SMase assay with natural substrate sphingomyelin; format: biochemical; settings: maximal inhibition; for Maximal resp., natural substrate (pH 5.0): pH 5.0 buffer; for Maximal resp., natural substrate (pH 6.5): pH 6.5 buffer
T1 sequence (P17405 47-631): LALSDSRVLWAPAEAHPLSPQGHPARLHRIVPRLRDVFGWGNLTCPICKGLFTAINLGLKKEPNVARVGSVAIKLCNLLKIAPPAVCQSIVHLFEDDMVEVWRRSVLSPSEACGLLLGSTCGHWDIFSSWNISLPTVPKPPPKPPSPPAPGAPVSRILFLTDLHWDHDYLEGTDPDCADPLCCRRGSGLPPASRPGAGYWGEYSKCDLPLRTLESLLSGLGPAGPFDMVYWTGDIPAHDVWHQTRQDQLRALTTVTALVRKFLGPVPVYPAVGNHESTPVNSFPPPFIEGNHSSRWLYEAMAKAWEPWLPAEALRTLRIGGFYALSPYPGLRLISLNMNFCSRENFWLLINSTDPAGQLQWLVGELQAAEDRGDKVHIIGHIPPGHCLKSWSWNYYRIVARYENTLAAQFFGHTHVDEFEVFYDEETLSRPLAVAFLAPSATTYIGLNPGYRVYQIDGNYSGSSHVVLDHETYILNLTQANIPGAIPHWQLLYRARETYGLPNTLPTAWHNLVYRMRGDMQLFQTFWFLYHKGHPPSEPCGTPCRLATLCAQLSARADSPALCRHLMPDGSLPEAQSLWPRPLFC

[2] = biological target: T1, Sphingomyelinase from human placenta (human L-ASM); experiment: SMase assay using HMU-PC profluorescence substrate; format: biochemical; settings: maximal inhibition, artificial substrate HMU-PC

Row | Maximal resp., natural substrate (pH 5.0) [1] [%] | Maximal resp., natural substrate (pH 6.5) [1] [%] | Maximal resp., HMU-PC substrate (pH 5.0) [2] [%] | SMILES
1 | 81.7 | 82.7 | 6.2 | O=c1c(O)c(-c2cccs2)oc2ccccc12 [MLS000097140]
2 | 103.2 | 104.4 | 99.1 | S=c1nc(C2CC2)[nH]c2ccccc12 [MLS000097294]
3 | 79.1 | 84.8 | 82.1 | COC(=O)C1=C(C)N(Cc2ccc(C)cc2)C(=O)/C1=C\c1ccc(O)c(OC)c1 [MLS000574110]
4 | 72.0 | 77.2 | 93.4 | O=S(=O)(Nc1ccc(N=Nc2ccc(O)c3ccccc23)cc1)c1ccccc1 [MLS000707545]
5 | 31.1 | 61.6 | 99.2 | O=C1CC(c2ccccc2)CC(=O)C1CS(=O)(=O)c1ccccc1 (stereo not drawn) [MLS000720877]
6 | 43.4 | 71.2 | 79.0 | CCS(=O)(=O)C1=NN2C(=N)/C(=C\c3ccc(OC(=O)c4ccco4)cc3)C(=O)N=C2S1 [MLS000950682]
7 | 97.8 | 100.7 | 15.8 | Clc1ccc(SCCOCCN2CCCCCC2)cc1.O=C(O)C(=O)O [MLS001164567]
8 | 9.1 | 26.8 | 51.8 | COc1cc(C(=O)Nc2scc(-c3ccc(Br)cc3)c2C(=O)O)cc(OC)c1OC [MLS001164606]
9 | 0.8 | 8.6 | 31.4 | COc1ccc(C2=NN(C(=O)COC(=O)c3ccc(S(C)(=O)=O)c([N+](=O)[O-])c3)C(c3ccco3)C2)cc1 (stereo not drawn) [MLS002248315]
